Experiments:
[1] = tested on: Landrace Pig Bladder; assay: Functional potassium channel opening activity in isolated bladder strips (field-stimulated twitch); settings: for Index: ED50 for P1075 divided by ED50 for the test agonist, averaged over tissues; for Efficacy (% P1075) / Emax: maximal efficacy relative to P1075, field stimulated bladder strips; for pD2 / EC50: negative logarithm of ED50; for Emax / EC50: Sus scrofa; for EC50: read-out: pD2 (converted)
Procedure: Compounds were evaluated for functional potassium channel opening activity using tissue strips obtained from Landrace pig bladders. Landrace pig bladders were obtained from female Landrace pigs of 9-30 kg. Landrace pigs were euthanized with an intraperitoneal injection of pentobarbital solution, Somlethal®, J. A. Webster Inc. Sterling Mass. The entire bladder was removed and immediately placed into Krebs Ringer bicarbonate solution (composition, mM: NaCl, 120; […] Dextrose, 4.7; […] Propranolol (0.004 mM) was included in all of the assays to block β-adrenoceptors. The trigonal and dome portions were […], Strips 3-5 […] (mm) wide and 20 mm long were prepared from the remaining tissue cut in a circular fashion. The mucosal layer was removed. One end was fixed to a stationary glass rod and the other to a Grass FT03 transducer at a basal preload of 1.0 g. Two parallel platinum electrodes were included in the stationary glass trod to provide field stimulation of 0.05 Hz, 0.5 milli-seconds at 20 volts. […] Tissues were allowed to equilibrate for at least 60 minutes and primed with 80 mM KCl. A control concentration response curve (cumulative) was generated for each tissue using the potassium channel opener […] as the control agonist. […] After a 60 minute rinsing period, a concentration response curve (cumulative) was generated for the test agonist in the same fashion as that used for the control agonist […]. The maximal efficacy of each compounds (expressed as % relative to […]) is reported. The amount of agent necessary to cause 50% of the agent's maximal response (ED50) was calculated using “ALLFIT” (DeLean et al., Am. J. […] Agonist potencies were also expressed as an index relative to […]. The index was calculated by dividing the ED50 for […] by the ED50 for the test agonist in a given tissue. Each tissue was used for only one test agonist, and the indices obtained from each tissue were averaged to provide an average index of potency.

[2] = tested on: Guinea-Pig Bladder (GPB) Cells; assay: Membrane Hyperpolarization (MHP) assay, DiBAC(4)3 / FLIPR; settings: for Maximal Response (% P1075): maximal steady-state hyperpolarization, normalized to 10 μM P1075 (100%); for EC50: membrane hyperpolarization, GPB cells; for Emax: read-out: Maximal Response (% P1075), maximal steady-state hyperpolarization, normalized to 10 μM P1075 (100%)

Compound | Index [1] | Efficacy (% P1075) [1] | pD2 [1] | Maximal Response (% P1075) [2] | EC50 [2] | Emax [1] | EC50 [1] | Index ([1]; Hydrochloride) | pD2 ([1]; Hydrochloride) | Maximal Response (% P1075) ([2]; Hydrochloride) | EC50 ([2]; Hydrochloride) | Efficacy (% P1075) ([1]; Hydrochloride) | EC50 ([2]; Cavia porcellus) | Emax ([2]; Cavia porcellus)
O=C1COCC2=C1C(c1ccc(F)c(Br)c1)C1=C(CCS1(=O)=O)N2 (single isomer, unassigned; (+)) [Example 12, (+)-9-(3-bromo-4-fluorophenyl)-2,3,5,9-tetrahydro-4H-pyrano[3,4-b]thieno[2,3-e]pyridin-8(7H)-one 1,1-dioxide] | 3.3 | 85 % P1075 | 7.2 | 101 % P1075 | 14 nM |  |  |  |  |  |  |  |  | 
N#Cc1cccc(C2C3=C(COCC3=O)NC3=C2S(=O)(=O)CC3)c1 (single isomer, unassigned; (+)) [Example 15, (+)9-(3-cyanophenyl)-2,3,5,9-tetrahydro-4H-pyrano [3,4-b]thieno[2,3-e]pyridin-8(7H)-one 1,1-dioxide] | 0.027 |  |  | 90 % P1075 | 640 nM | 100% | 2000 nM |  |  |  |  |  |  | 
O=C1COCC2=C1C(c1ccc(Cl)c([N+](=O)[O-])c1)C1=C(CCS1(=O)=O)N2 (single isomer, unassigned; (+)) [Example 18, (+)-9-(4-chloro-3-nitrophenyl)-2,3,5,9-tetrahydro-4H-pyrano[3,4-b]thieno[2,3-e]pyridin-8(7H)-one 1,1-dioxide] | 1.6 |  | 7.3 | 95 % P1075 | 58 nM | 100% |  |  |  |  |  |  |  | 
Cl.O=C1CCC2=C1C(c1ccc(F)c(Br)c1)C1=C(CNCC1=O)N2 (single isomer, unassigned; (-)) [Example 5, (−)-5-(3-bromo-4-fluorolphenyl)-2,3,5,7,8,9-hexahydro-1H-cyclopenta[b][1,7]naphthyridine-4,6-dione Hydrochloride] |  | 100 % P1075 |  |  |  |  |  | 0.16 | 6.4 | 97 % P1075 | 190 nM |  |  | 
Cl.O=C1CCCC2=C1C(c1ccc(F)c(Br)c1)C1=C(CNCC1=O)N2 (single isomer, unassigned; (-)) [Example 7, (−)-5-(3-bromo-4-fluorophenyl)-2,3,5,8,9,10-hexahydrobenzo[b][1,7]naphthyridine-4,6(1H, 7H)-dione Hydrochloride] |  |  |  |  |  | 97% |  | 0.040 | 5.4 | 75 % P1075 | 570 nM |  |  | 
O=C1COCC2=C1C(c1ccc(F)c(Br)c1)C1=C(CCS1(=O)=O)N2 (single isomer, unassigned; (-)) [Example 13, (−)-9-(3-bromo-4-fluorophenyl)-2,3,5,9-tetrahydro-4H-pyrano[3,4-b]thieno[2,3-e]pyridin-8(7H)-one 1,1-dioxide] | 0.13 | 98 % P1075 | 5.9 | 101 % P1075 | 240 nM |  |  |  |  |  |  |  |  | 
O=C1COCC2=C1C(c1ccc(Cl)c([N+](=O)[O-])c1)C1=C(CCS1(=O)=O)N2 (single isomer, unassigned; (-)) [Example 19, (−)-9-(4-chloro-3-nitrophenyl)-2,3,5,9-tetrahydro-4H-pyrano[3,4-b]thieno[2,3-e]pyridin-8(7H)-one 1,1-dioxide] | 0.70 | 100 % P1075 | 6.0 | 94 % P1075 | 1800 nM |  |  |  |  |  |  |  |  | 
O=C1COCC2=C1C(c1ccc(F)c(Br)c1)C1=C(COCC1=O)N2 [Example 1, 5-(3-bromo-4-fluorophenyl)-5,10-dihydro-1H,3H-dipyrano[3,4-b:4,3-e]pyridine-4,6(7H,9H)-dione] | 0.36 | 97 % P1075 | 6.9 | 96 % P1075 | 27 nM |  |  |  |  |  |  |  |  | 
Cl.O=C1CCCC2=C1C(c1ccc(F)c(Br)c1)C1=C(CNCC1=O)N2 (stereo not shown) [Example 2, 5-(3-bromo-4-fluorophenyl)-2,3,5,8,9,10-hexahydrobenzo [b][1,7]naphthyridine-4,6(1H, 7H)-dione Hydrochloride] |  |  |  |  |  |  |  | 0.041 | 5.8 | 88 % P1075 | 650 nM | 99 % P1075 |  | 
Cl.O=C1CNCC2=C1C(c1ccc(F)c(Br)c1)C1=C(CCCS1(=O)=O)N2 (stereo not shown) [Example 9, 10-(3-bromo-4-fluorophenyl)-3,4,6,7,8,10-hexahydro-2H-thiopyrano[3,2-b][1,7]naphthyridin-9(5H)-one 1,1-dioxide Hydrochloride] | 0.0015 |  |  |  |  | 82% | 126000 nM |  |  |  |  |  | 2600 nM | 89%
Cl.O=C1CNCC2=C1C(c1ccc(F)c(Br)c1)C1=C(CCS1(=O)=O)N2 (stereo not shown) [Example 10, 9-(3-Bromo-4-fluorophenyl)-2,3,5,6,7,9-hexahydrothieno [3,2-b][1,7]naphthyridin-8(4H)-one, 1,1-dioxide hydrochloride] | 0.0028 | 96 % P1075 | 4.3 | 87 % P1075 | 1400 nM |  |  |  |  |  |  |  |  | 
O=C1COCC2=C1C(c1ccc(F)c(Br)c1)C1=C(CCS1(=O)=O)N2 (stereo not shown) [Example 11, 9-(3-bromo-4-fluorophenyl)-2,3,5,9-tetrahydro-4H-pyrano[3,4-b]thieno[2,3-e]pyridin-8(7H)-one 1,1-dioxide] | 1.2 |  | 6.8 |  | 23 nM | 91% |  |  |  |  |  |  |  | 104%
O=C1CCCC2=C1C(c1ccc(F)c(Br)c1)C1=C(COCC1=O)N2 (stereo not shown) [Example 20, 5-(3-bromo-4-fluorophenyl)-5,8,9,10-tetrahydro-1H-pyrano[3,4-b]quinoline-4,6(3H, 7H)-dione] | 0.43 |  |  |  |  | 93% | 2510 nM |  |  |  |  |  | 35 nM | 93%
O=C1COCC2=C1C(c1ccc(F)c(Br)c1)C1=C(CSCC1=O)N2 (stereo not shown) [Example 22, 5-(3-bromo-4-fluorophenyl)-5,10-dihydro-1H,3H-pyrano[3,4-b]thiopyrano[4,3-e]pyridine-4,6(7H,9H)-dione] | 0.027 |  |  |  |  | 100% | 2510 nM |  |  |  |  |  | 46 nM | 85%
Cl.O=C1CNCC2=C1C(c1ccc(F)c(Br)c1)C1=C(COCC1=O)N2 (stereo not shown) [Example 24, 5-(3-bromo-4-fluorophenyl)-5,8,9,10-tetrahydro-1H-pyrano[3,4-b][1,7]naphthyridine-4,6(3H,7H)-dione Hydrochloride] | 0.055 |  |  |  |  | 100% | 1000 nM |  |  |  |  |  | 730 nM | 74%
O=C1COCC2=C1C(c1ccc(Cl)c([N+](=O)[O-])c1)C1=C(COCC1=O)N2 [Example 28, 5-(4-chloro-3-nitrophenyl)-5,10-dihydro-1H,3H-dipyrano[3,4-b:4,3-e]pyridine-4,6(7H,9H)-dione] | 0.42 | 94 % P1075 | 6.7 | 98 % P1075 | 64 nM |  |  |  |  |  |  |  |  | 
N#Cc1cccc(C2C3=C(COCC3=O)NC3=C2C(=O)COC3)c1 [Example 29, 5-(3-cyanophenyl)-5,10-dihydro-1H,3H-dipyrano[3,4-b:4,3-e]pyridine-4,6(7H,9H)-dione] | 0.075 | 89 % P1075 | 5.8 | 87 % P1075 | 1100 nM |  |  |  |  |  |  |  |  | 
O=C1COCC2=C1C(c1ccc(F)c(I)c1)C1=C(COCC1=O)N2 [Example 30, 5-(4-fluoro-3-iodophenyl)-5,10-dihydro-1H,3H-dipyrano[3,4-b:4,3-e]pyridine-4,6(7H,9H)-dione] | 1.1 | 100 % P1075 | 7.6 | 81 % P1075 | 5 nM |  |  |  |  |  |  |  |  | 
O=C1COCC2=C1C(c1cc(Br)ccc1O)C1=C(COCC1=O)N2 [Example 31, 5-(5-bromo-2-hydroxyphenyl)-5,10-dihydro-1H,3H-dipyrano[3,4-b:4,3-e]pyridine-4,6(7H,9H)-dione] | 0.065 | 85 % P1075 | 5.1 | 83 % P1075 | 1300 nM |  |  |  |  |  |  |  |  | 
O=C1COCC2=C1C(c1ccc(F)c(C(F)(F)F)c1)C1=C(COCC1=O)N2 [Example 32, 5-[4-fluoro-3-(trifluoromethyl)phenyl]-5,10-dihydro-1H, 3H-dipyrano[3,4-b:4,3-e]pyridine-4,6(7H,9H)-dione] | 0.41 | 100 % P1075 | 6.3 | 102 % P1075 | 15 nM |  |  |  |  |  |  |  |  | 

Source: patent US6642222B2, “Pyrano, piperidino, and thiopyrano compounds and methods of use” (Abbott Laboratories, priority 1998, dated 2003)
